{"source": "patent US9445590B2", "about": "“Fungicidal composition comprising a pyridylethylbenzamide derivative and a compound capable of inhibiting the transport of electrons of the respiratory chain in phytopathogenic fungal organisms” (BAYER INTELLECTUAL PROPERTY GMBH, priority 2004, dated 2016)", "key": {"[1]": {"system": "Pyrenophora teres", "assay": "Efficacy against Pyrenophora teres on barley plants (preventive spray)", "type": "in vivo", "conditions": "288 h, grading 12 days after contamination", "method": "(§1) The active ingredients tested are prepared by potter homogenisation in a mixture of acetone/tween/water. This suspension is then diluted with water to obtain the desired active material concentration.\n(§2) Barley plants (Express variety) in starter cups, sown on a 50/50 peat soil-pozzolana substrate and grown at 12° C., are treated at the 1-leaf stage (10 cm tall) by spraying with the aqueous suspension described above. Plants, used as controls, are treated with an aqueous solution not containing the active material.\nAfter 24 hours, the plants are contaminated by spraying them with an aqueous suspension of Pyrenophora teres spores (12 000 spores per ml). The spores are collected from a 12-day-old culture. The contaminated barley plants are incubated for 24 hours at about 20° C. and at 100% relative humidity, and then for 12 days at 80% relative humidity.\nGrading (% of efficacy) is carried out 12 days after the contamination, in comparison with the control plants."}, "[2]": {"system": "Erysiphe graminis f. sp. tritici", "assay": "Efficacy against Erysiphe graminis f. sp. tritici on wheat plants (preventive spray)", "type": "in vivo", "conditions": "Blumeria graminis, grading 7 to 14 days after contamination", "method": "as §1\nWheat plants (Audace variety) in starter cups, sown on 50/50 peat soil-pozzolana substrate and grown at 12° C., are treated at the 1-leaf stage (10 cm tall) by spraying with the aqueous suspension described above.\n(§3) Plants, used as controls, are treated with an aqueous solution not containing the active material.\nAfter 24 hours, the plants are contaminated by dusting them with Erysiphe graminis f. sp. tritici spores, the dusting being carried out using diseased plants.\nGrading is carried out 7 to 14 days after the contamination, in comparison with the control plants.\n(§4) The formulated compounds are diluted with water to obtain the desired active material concentration.\nas §2, with “Wheat” for “Barley”, “(Audace” for “(Express”, “on” for “on a”"}, "[3]": {"system": "Sphaerotheca fuliginea", "assay": "Efficacy against Sphaerotheca fuliginea on gherkin plants (preventive spray)", "type": "in vivo", "conditions": "Podosphaera fuliginea, 504 h, grading 21 days after contamination", "method": "as §1\nas §2, with “Gherkin” for “Barley”, “(Vert petit de Paris” for “(Express”, “20° C./23°” for “12°”, “2-leaves” for “1-leaf”, “stage” for “stage (10 cm tall)”\nAfter 24 hours, the plants are contaminated by spraying them with an aqueous suspension of Sphaerotheca fuliginea spores (100 000 spores per ml). The spores are collected from a contaminated plants. The contaminated gherkin plants are incubated at about 20° C./25° C. and at 60/70% relative humidity.\nGrading (% of efficacy) is carried out 21 days after the contamination, in comparison with the control plants."}, "[4]": {"system": "Alternaria brassicae", "assay": "Efficacy against Alternaria brassicae on radish plants (preventive spray)", "type": "in vivo", "conditions": "Example 13, dose 4 ppm, grading 6 to 7 days after contamination", "method": "as §4\nRadish plants (Pernot variety) in starter cups, sown on a 50/50 peat soil-pozzolana substrate and grown at 18-20° C., are treated at the cotyledon stage by spraying with the aqueous suspension described above.\nas §3\nAfter 24 hours, the plants are contaminated by spraying them with an aqueous suspension of Alternaria brassicae spores (40,000 spores per cm^3). The spores are collected from a 12-13-day-old culture.\nThe contaminated radish plants are incubated for 6-7 days at about 18° C., under a humid atmosphere.\nGrading is carried out 6 to 7 days after the contamination, in comparison with the control plants."}, "[5]": {"system": "Alternaria brassicae", "assay": "Efficacy against Alternaria brassicae (in vitro), growth on PDA medium", "type": "cell-based", "conditions": "Alternaria brassicae, 336 h, radial growth after 14 days", "method": "The growth of Alternaria brassicae was followed on PDA medium containing the compounds alone or in mixtures. The PDA medium is prepared by mixing 39 grams of PDA (Merck) in 1 litter of demineralised water. The medium is sterilized by autoclave 15 minutes at 121° C. The compounds are dissolved in acetone and added to the medium before pouring it in Petri dishes. After medium drying, the fungus is inoculated on the medium and allowed to growth at 19° C. The percentage of efficacy is noted after 14 days of growth (measurement of the radial growth) of the fungus in comparison with a control. […]"}, "[6]": {"system": "Botrytis cinerea", "assay": "Efficacy against Botrytis cinerea on gherkin plants (preventive spray)", "type": "in vivo", "conditions": "Botrytis cinerea, grading 5 to 7 days after contamination", "method": "as §1\nas §2, with “Gherkin” for “Barley”, “(Petit vert de Paris” for “(Express”, “18-20°” for “12°”, “cotyledon Z11” for “1-leaf”, “stage” for “stage (10 cm tall)”\nAfter 24 hours, the plants are contaminated by depositing drops of an aqueous suspension of Botrytis cinerea spores (150,000 spores per ml) on upper surface of the leaves. The spores are collected from a 15-day-old culture and are suspended in a nutrient solution composed of: • 20 g/L of gelatine • 50 g/L of cane sugar • 2 g/L of NH4NO3 • 1 g/L of KH2PO4\nThe contaminated gherkin plants are settled for 5/7 days in a climatic room at 15-11° C. (day/night) and at 80% relative humidity. Grading is carried out 5 to 7 days after contamination, in comparison with the control plants.\nas §2, with “Gherkin” for “Barley”, “(Petit vert de Paris” for “(Express”, “18-20°” for “12°”, “cotyledon Z 11” for “1-leaf”, “stage” for “stage (10 cm tall)”\nas §4"}}}
{"compound": "O=C(NCCc1ncc(C(F)(F)F)cc1Cl)c1ccccc1C(F)(F)F", "note": "[Compound 1, N-{2-[3-chloro-5-(trifluoromethyl)-2-pyridinyl]ethyl}-2-trifluoromethylbenzamide]", "values": [{"measurement": "Emax at 4 g/ha", "setting": "[1]; Example 1, dose 4 g/ha", "value": 20, "unit": "%"}, {"measurement": "Emax at 8 g/ha", "setting": "[1]; Example 1, dose 8 g/ha", "value": 50, "unit": "%"}, {"measurement": "Emax at 125 ppm", "setting": "[2]; Example 4, dose 125 ppm", "value": 20, "unit": "%"}, {"measurement": "Emax at 250 g/ha", "setting": "[2]; Example 9, dose 250 g/ha, formulated compounds", "value": 50, "unit": "%"}, {"measurement": "Emax at 4 ppm", "setting": "[3]; Example 11, dose 4 ppm", "value": 10, "unit": "%"}, {"measurement": "Emax at 8 ppm", "setting": "[3]; Example 11, dose 8 ppm", "value": 15, "unit": "%"}, {"measurement": "Emax at 15 ppm", "setting": "[3]; Example 11, dose 15 ppm", "value": 25, "unit": "%"}, {"measurement": "Emax at 7.8 ppm", "setting": "[3]; Example 12, dose 7.8 ppm", "value": 10, "unit": "%"}, {"measurement": "Emax at 15.6 ppm", "setting": "[3]; Example 12, dose 15.6 ppm", "value": 18, "unit": "%"}, {"measurement": "Emax at 31.2 ppm", "setting": "[3]; Example 12, dose 31.2 ppm", "value": 86, "unit": "%"}, {"measurement": "Emax at 4 ppm", "setting": "[4]", "value": 40, "unit": "%"}, {"measurement": "Emax at 0.025 ppm", "setting": "[5]; Example 2, dose 0.025 ppm", "value": 34, "unit": "%"}, {"measurement": "Emax at 0.05 ppm", "setting": "[5]; Example 2, dose 0.05 ppm", "value": 45, "unit": "%"}, {"measurement": "Emax at 0.1 ppm", "setting": "[5]; Example 2, dose 0.1 ppm", "value": 53, "unit": "%"}, {"measurement": "Emax at 0.25 ppm", "setting": "[5]; Example 2, dose 0.25 ppm", "value": 76, "unit": "%"}, {"measurement": "Emax at 0.5 ppm", "setting": "[5]; Example 2, dose 0.5 ppm", "value": 90, "unit": "%"}, {"measurement": "Emax at 37 ppm", "setting": "[6]; Example 5, dose 37 ppm", "value": 0, "unit": "%"}, {"measurement": "Emax at 111 ppm", "setting": "[6]; Example 5, dose 111 ppm", "value": 60, "unit": "%"}, {"measurement": "Emax at 333 ppm", "setting": "[6]; Example 5, dose 333 ppm", "value": 90, "unit": "%"}, {"measurement": "Emax at 37 ppm", "setting": "[6]; Example 6, dose 37 ppm", "value": 0, "unit": "%"}, {"measurement": "Emax at 111 ppm", "setting": "[6]; Example 6, dose 111 ppm", "value": 60, "unit": "%"}, {"measurement": "Emax at 333 ppm", "setting": "[6]; Example 6, dose 333 ppm", "value": 100, "unit": "%"}, {"measurement": "Emax at 12 ppm", "setting": "[6]; Example 7, dose 12 ppm", "value": 0, "unit": "%"}, {"measurement": "Emax at 37 ppm", "setting": "[6]; Example 7, dose 37 ppm", "value": 40, "unit": "%"}, {"measurement": "Emax at 111 ppm", "setting": "[6]; Example 7, dose 111 ppm", "value": 92, "unit": "%"}, {"measurement": "Emax at 37 ppm", "setting": "[6]; Example 8, dose 37 ppm", "value": 3, "unit": "%"}, {"measurement": "Emax at 111 ppm", "setting": "[6]; Example 8, dose 111 ppm", "value": 58, "unit": "%"}, {"measurement": "Emax at 333 ppm", "setting": "[6]; Example 8, dose 333 ppm", "value": 75, "unit": "%"}, {"measurement": "Emax at 37 ppm", "setting": "[6]; Example 10, dose 37 ppm", "value": 72, "unit": "%"}, {"measurement": "Emax at 31.2 ppm", "setting": "[6]; Example 14, dose 31.2 ppm, formulated compounds", "value": 20, "unit": "%"}, {"measurement": "Emax at 62.5 ppm", "setting": "[6]; Example 14, dose 62.5 ppm, formulated compounds", "value": 40, "unit": "%"}]}
